In patent US20110082133A1, “PYRIDONE COMPOUNDS” (priority 2008, published 2011):
Where a name gives a salt, the structure may show the parent alone.

Key:
rat EP4 receptor = rat EP4 receptor (Rattus norvegicus, UniProt P43114); test: EP4 receptor agonistic action in rat (cAMP increasing action in rat EP4 receptor expression CHO-K1 cells); type: cell-based; parameters: expressed in transfected cells; settings: cAMP increasing action by 1 μM PGE2 taken as 100%
Protocol: The agonistic activity was evaluated by the cAMP increasing action in the rat EP4 receptor expression cells. The rat EP4 receptor expression vector was introduced into CHO-K1 cells (American Type Culture Collection) to prepare a rat EP4 receptor stable expression cell line. These cells were seeded onto a 96-well microplate at 2×10^4 cell/well, and used for the experiment the next day. The culture medium of each well was removed by suction, 100 μL/well of an assay culture medium (2 μM indomethacin, 0.1% bovine serum albumin-containing α-MEM) was added thereto, and incubated at 37° C. for 1 hour. The culture medium was removed again by suction, and replaced with 100 μL/well of an assay culture medium comprising a test compound and 1 mM IBMX (3-isobutyl-1-methylxanthine). After incubating at 37° C. for 30 minutes, the culture medium was removed by suction, 100 μL/well of a cell lysate (0.2% Triton-X100-containing phosphate buffer physiological saline) was put thereinto, and the plate was shaken for 10 minutes. Using a cAMP femto 2 kit (manufactured by Cis Bio International), the cAMP concentration in the cell lysate was measured. Further, the cAMP increasing action (%) was calculated with the cAMP increasing action by 1 μM PGE2 was taken as 100%.

[1] = test system: LPS-induced TNF-α production in THP-1 cells; test: Inhibitory action on LPS-induced TNF-α production in THP-1 cells; type: cell-based; settings: Homo sapiens, 3 hours after LPS, ELISA
Protocol: Human monocytic cell line THP-1 cells were suspended in an assay medium (PRMI-1640 containing 10% fetal bovine serum, 100 unit/mL penicillin G sodium, and 100 μg/mL streptomycin sulfate), and seeded onto a 96-well plate at 1×10^5 cells/well. 50 μL/well of an assay medium containing a test compound was added thereto, followed by incubation at 37° C. for 30 minutes. Further, 50 μL/well of an assay medium containing 1 to 5 μg/mL of LPS was added thereto, and the TNF-α concentration in the assay medium of each well after 3 hours was measured. The measurement was carried out by means of a standard ELISA method. A 96-well plate which had been coated overnight with an anti-human TNF monoclonal antibody (clone: MAb1) (manufactured by Becton, Dickinson and Company) as a capture antibody was washed with a wash buffer (PBS containing 0.05% Tween-20), and PBS containing 10% fetal bovine serum was incubated at room temperature for 1 hour to perform blocking. After washing with a wash buffer, 100 μL/well of the assay medium to be measured was incubated at 4° C. overnight. As the standard material to be measured, a recombinant human TNF (manufactured by Becton, Dickinson and Company) was used. After washing with a wash buffer, 100 μL of a biotinylated anti-human TNF monoclonal antibody (clone: MAb11) as a detection antibody was treated at room temperature for 1 hour. After washing with a wash buffer, it was treated with 100 μL/well of an HRP-labeled Streptavidin (manufactured by Zymed Laboratories, Inc.) at room temperature for 30 minutes, and washed again. Treatment was conducted using 100 μL/well of a TMB (3,3′,5,5′-tetramethylbenzidine) substrate liquid at room temperature for 20 minutes in a dark room. A 2 M sulfuric acid was added thereto at 50 μL/well to stop the reaction, and an absorbance at 450 nm/570 nm was measured by means of a plate reader SPECRA max (manufactured by Molecular Devices Inc.).

TNF-α production = test: In vivo TNF-α production inhibiting action in rat (LPS-induced plasma TNF-α); parameters: species or system SD male rats; settings: oral administration 1 hour before LPS (10 μg/kg i.v.), plasma TNF-α 90 minutes after LPS
Protocol: LPS (10 μg/kg) was administered to caudal veins of SD male rats, and after 90 minutes from the administration, the heparin blood was collected from the abdominal vena cava to prepare a plasma. The test compound was orally administered 1 hour before the administration of LPS. The amount of TNF-α in the plasma was measured using a BD OptEIA rat TNF ELISA set (manufactured by Becton, Dickinson and Company) according to the attached method. The inhibitory rate by the test compound was determined from the amount of TNF-α in plasma in a control group (administered with a solvent).

rat EP1 receptor = molecular target: T1, rat EP1 receptor (Rattus norvegicus, UniProt P70597); test: Rat EP1 receptor agonistic/antagonistic action (intracellular Ca2+, FLIPR, HEK293 stable expression cells); type: cell-based; settings: inhibition of intracellular Ca2+ increasing action by PGE2
T1 construct: expressed in transfected cells
T1 sequence (P70597 1-405): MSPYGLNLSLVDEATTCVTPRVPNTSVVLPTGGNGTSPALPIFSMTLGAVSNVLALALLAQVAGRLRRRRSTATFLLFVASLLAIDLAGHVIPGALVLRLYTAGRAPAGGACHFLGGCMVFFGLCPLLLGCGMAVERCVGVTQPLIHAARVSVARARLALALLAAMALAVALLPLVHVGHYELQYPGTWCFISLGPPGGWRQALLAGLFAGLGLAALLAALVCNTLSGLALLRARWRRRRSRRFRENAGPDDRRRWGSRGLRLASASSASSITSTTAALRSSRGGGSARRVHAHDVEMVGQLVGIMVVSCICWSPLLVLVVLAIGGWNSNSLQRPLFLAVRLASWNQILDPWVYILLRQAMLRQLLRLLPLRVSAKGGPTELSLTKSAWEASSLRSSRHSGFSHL
Protocol: Using rat EP1 or rat EP3β receptor stable expression cells, the intracellular Ca^2+ concentration was measured using a fluorescent imaging plate reader (FLIPR manufactured by Molecular Devices Corporation). The agonistic activity was evaluated by the intracellular Ca^2+ increasing action of the test compound, and the antagonistic activity was evaluated by the inhibiting action of the test compound on the intracellular Ca^2+ increasing action by PGE2.
The cDNA of the rat EP 1 or EP3β receptor was subcloned into an expression vector (pcDNA3.1-V5-His-topo, manufactured by Invitrogen Corporation). This expression vector was introduced into HEK293 cells (American Type Culture Collection) to prepare a rat EP1 or EP3β receptor stable expression cell line. These cells were seeded onto a 96-well poly-D-lysin treated black wall clear bottom plate (manufactured by Becton, Dickinson and Company) at 2 to 3×10^4 cell/well, and used for the experiment the next day. The measurement of the intracellular Ca^2+ concentration was carried out by an FLIPR calcium 3 assay kit (manufactured by Molecular Devices Corporation). The culture medium of each well was removed by suction and replaced with a loading buffer (Hank's balanced salt solution containing 20 mM HEPES-NaOH (pH 7.4), 2.5 mM Probenecid, 0.1% bovine serum albumin, and a color), followed by incubating at room temperature for 3 hours and loading a color. For the evaluation of the agonistic action, the change in the intracellular Ca^2+ concentration was determined from the difference in the maximum value of the intracellular Ca^2+ concentration after the addition of the test compound and the value before the addition of the test compound. For the evaluation of the antagonistic action, after incubating the test compound for 5 minutes, PGE2 was added thereto to determine the change in the intracellular Ca^2+ concentration by PGE2.
Further, NE means that the action has no significance.

Chain of rat EP4 receptor (P43114 whole entry): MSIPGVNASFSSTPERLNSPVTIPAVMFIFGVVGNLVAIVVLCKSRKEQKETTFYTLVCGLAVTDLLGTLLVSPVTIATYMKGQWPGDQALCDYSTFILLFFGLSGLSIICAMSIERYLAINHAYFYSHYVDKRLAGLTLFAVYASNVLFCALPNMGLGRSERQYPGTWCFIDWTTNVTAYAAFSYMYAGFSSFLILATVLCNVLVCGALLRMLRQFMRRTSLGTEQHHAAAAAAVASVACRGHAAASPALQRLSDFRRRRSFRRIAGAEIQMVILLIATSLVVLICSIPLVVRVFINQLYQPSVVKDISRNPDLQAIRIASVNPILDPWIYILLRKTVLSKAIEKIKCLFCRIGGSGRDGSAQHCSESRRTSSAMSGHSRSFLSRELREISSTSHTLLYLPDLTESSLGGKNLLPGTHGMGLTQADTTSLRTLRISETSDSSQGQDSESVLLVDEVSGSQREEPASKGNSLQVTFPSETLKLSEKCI

O=C(O)c1ccc(CCn2c(CN3CCc4ccc(F)cc43)c(Cl)cc(Cl)c2=O)cc1 [Example 9, 4-(2-{3,5-dichloro-6-[(6-fluoro-2,3-dihydro-1H-indol-1-yl)methyl]-2-oxopyridin-1(21-1)-yl}ethyl)benzoic acid]
cAMP increasing action (%) at 10 μM (rat EP4 receptor): 65%
IC50 [1]: 11 nM
ED50 (TNF-α production): 4.3 mg/kg
IC50 (rat EP1 receptor): 1000 nM

CCC[C@H]1CCCN1Cc1c(Cl)cc(Cl)c(=O)n1CCc1ccc(C(=O)O)cc1 [Example 17, 4-{2-[3,5-dichloro-2-oxo-6-{[(2S)-2-propylpyrrolidin-1-yl]methyl}pyridin-1(2H)-yl]ethyl}benzoic acid trifluoroacetate]
cAMP increasing action (%) at 10 μM (rat EP4 receptor): 58%
IC50 [1]: 9.4 nM
ED50 (TNF-α production): 0.15 mg/kg
IC50 (rat EP1 receptor): 2100 nM

O=C(O)c1ccc(CCn2c(CNc3cccc(OC(F)(F)F)c3)c(Cl)cc(Cl)c2=O)cc1 [Example 107]
cAMP increasing action (%) at 10 μM (rat EP4 receptor): 76%
IC50 [1]: 40 nM
ED50 (TNF-α production): 1 mg/kg
IC50 (rat EP1 receptor): > 10000 nM

CN(Cc1c(Cl)cc(Cl)c(=O)n1CCc1ccc(C(=O)O)cc1)c1cccc(Cl)c1 [Example 160]
cAMP increasing action (%) at 10 μM (rat EP4 receptor): 79%
IC50 [1]: 29 nM
ED50 (TNF-α production): 2.3 mg/kg
IC50 (rat EP1 receptor): 2700 nM
